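Following 48 hours of exposure in 96-well plates, responses at five concentrations were used to interpolate endpoints linearly. GI50: concentration for 50% inhibition of growth.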 Calls of active or inactive are those of the source. Cut-off read from the data, not from the text of the source: active = GI50 up to about 1.1 µM and inactive = higher.
What was measured:
Test in all cases: NCI anticancer screen, dose series, 48 h
[1] = test system: 786-0
[2] = test system: A498
[3] = test system: A549
[4] = test system: ACHN
[5] = test system: CAKI-1
[6] = test system: CCRF-CEM
[7] = test system: COLO 205
[8] = test system: DLD-1
[9] = test system: DMS-273
[10] = test system: EKVX
[11] = test system: HCC 2998
[12] = test system: HCT-116
[13] = test system: HCT-15
[14] = test system: HL-60
[15] = test system: HOP-18
[16] = test system: HOP-62
[17] = test system: HOP-92
[18] = test system: HT-29
[19] = test system: IGROV-1
[20] = test system: K562
[21] = test system: KM-20L2
[22] = test system: LOX IMVI
[23] = test system: LXFL 529
[24] = test system: M14
[25] = test system: M19-MEL
[26] = test system: MOLT-4
[27] = test system: Malme-3M
[28] = test system: NCI-H226
[29] = test system: NCI-H23
[30] = test system: NCI-H522
[31] = test system: OVCAR-3
[32] = test system: OVCAR-4
[33] = test system: OVCAR-5
[34] = test system: OVCAR-8
[35] = test system: RPMI-8226
[36] = test system: RXF 393
[37] = test system: RXF 631
[38] = test system: SF-268
[39] = test system: SF-295
[40] = test system: SF-539
[41] = test system: SK-MEL-28
[42] = test system: SK-MEL-2
[43] = test system: SK-MEL-5
[44] = test system: SK-OV-3
[45] = test system: SN12C
[46] = test system: SNB-19
[47] = test system: SNB-75
[48] = test system: SR
[49] = test system: SW-620
[50] = test system: TK-10
[51] = test system: U-251
[52] = test system: UACC-257
[53] = test system: UACC-62
[54] = test system: UO-31
[55] = test system: DMS-114
[56] = test system: NCI-H460

Structure (SMILES): Cc1cccc(C)c1NC(=O)C1C(=O)N(c2c(C)cccc2C)C(=O)/C1=N\N (stereo unspecified)
- GI50 [1]: > 100 µM (inactive)
- GI50 [2]: > 100 µM (inactive)
- GI50 [3]: > 100 µM (inactive)
- GI50 [4]: > 100 µM (inactive)
- GI50 [5]: > 100 µM (inactive)
- GI50 [6]: > 100 µM (inactive)
- GI50 [7]: > 100 µM (inactive)
- GI50 [8]: > 100 µM (inactive)
- GI50 [9]: > 100 µM (inactive)
- GI50 [10]: > 100 µM (inactive)
- GI50 [11]: > 100 µM (inactive)
- GI50 [12]: > 100 µM (inactive)
- GI50 [13]: > 100 µM
- GI50 [14]: 1.68 µM (inactive)
- GI50 [15]: > 100 µM (inactive)
- GI50 [16]: > 100 µM (inactive)
- GI50 [17]: > 100 µM (inactive)
- GI50 [18]: > 100 µM (inactive)
- GI50 [19]: > 100 µM (inactive)
- GI50 [20]: > 100 µM (inactive)
- GI50 [21]: > 100 µM (inactive)
- GI50 [22]: > 100 µM (inactive)
- GI50 [23]: > 100 µM (inactive)
- GI50 [24]: > 100 µM (inactive)
- GI50 [25]: > 100 µM (inactive)
- GI50 [26]: > 100 µM (inactive)
- GI50 [27]: > 100 µM (inactive)
- GI50 [28]: > 100 µM (inactive)
- GI50 [29]: > 100 µM (inactive)
- GI50 [30]: > 100 µM (inactive)
- GI50 [31]: > 100 µM (inactive)
- GI50 [32]: > 100 µM (inactive)
- GI50 [33]: > 100 µM (inactive)
- GI50 [34]: > 100 µM (inactive)
- GI50 [35]: > 100 µM (inactive)
- GI50 [36]: > 100 µM (inactive)
- GI50 [37]: > 100 µM (inactive)
- GI50 [38]: > 100 µM (inactive)
- GI50 [39]: > 100 µM (inactive)
- GI50 [40]: > 100 µM (inactive)
- GI50 [41]: > 100 µM (inactive)
- GI50 [42]: > 100 µM (inactive)
- GI50 [43]: > 100 µM (inactive)
- GI50 [44]: > 100 µM (inactive)
- GI50 [45]: > 100 µM (inactive)
- GI50 [46]: > 100 µM (inactive)
- GI50 [47]: > 100 µM (inactive)
- GI50 [48]: > 100 µM (inactive)
- GI50 [49]: > 100 µM (inactive)
- GI50 [50]: > 100 µM (inactive)
- GI50 [51]: > 100 µM (inactive)
- GI50 [52]: > 100 µM (inactive)
- GI50 [53]: > 100 µM (inactive)
- GI50 [54]: > 100 µM (inactive)

Structure (SMILES): CC(C)(C)c1cc(C2c3cc4c(cc3OC(O)(CO)C2C(=O)O)OCO4)cc(C(C)(C)C)c1O.CC(C)(C)c1cc(C2c3cc4c(cc3OC3(O)COC(=O)C23)OCO4)cc(C(C)(C)C)c1O (stereo unspecified)
- GI50 [1]: 16.6 µM (inactive)
- GI50 [3]: 18.7 µM (inactive)
- GI50 [4]: 14.8 µM (inactive)
- GI50 [5]: 18.4 µM (inactive)
- GI50 [6]: 3.58 µM (inactive)
- GI50 [7]: 20.4 µM (inactive)
- GI50 [8]: 11.7 µM (inactive)
- GI50 [55]: 8.34 µM (inactive)
- GI50 [9]: 14 µM (inactive)
- GI50 [10]: 22.5 µM (inactive)
- GI50 [12]: 8.47 µM (inactive)
- GI50 [13]: 8.2 µM
- GI50 [14]: 7.73 µM (inactive)
- GI50 [15]: 7.78 µM (inactive)
- GI50 [16]: 32.2 µM (inactive)
- GI50 [17]: 9.82 µM (inactive)
- GI50 [18]: 13.5 µM (inactive)
- GI50 [19]: 16.4 µM (inactive)
- GI50 [20]: 7.67 µM (inactive)
- GI50 [21]: 17 µM (inactive)
- GI50 [22]: 12.2 µM (inactive)
- GI50 [24]: 14.7 µM (inactive)
- GI50 [25]: 13.8 µM (inactive)
- GI50 [26]: 3.52 µM (inactive)
- GI50 [27]: 16.6 µM (inactive)
- GI50 [29]: 9.55 µM (inactive)
- GI50 [56]: 14.7 µM (inactive)
- GI50 [31]: 5.36 µM (inactive)
- GI50 [32]: 11.7 µM (inactive)
- GI50 [34]: 10 µM (inactive)
- GI50 [35]: 4.37 µM (inactive)
- GI50 [36]: 11.9 µM (inactive)
- GI50 [37]: 13.1 µM (inactive)
- GI50 [39]: 15.7 µM (inactive)
- GI50 [40]: 12.5 µM (inactive)
- GI50 [41]: 11.3 µM (inactive)
- GI50 [43]: 9.48 µM (inactive)
- GI50 [44]: 27.3 µM (inactive)
- GI50 [45]: 9.04 µM (inactive)
- GI50 [46]: 12.9 µM (inactive)
- GI50 [47]: 10.1 µM (inactive)
- GI50 [49]: 14.4 µM (inactive)
- GI50 [50]: 22.7 µM (inactive)
- GI50 [51]: 14.5 µM (inactive)
- GI50 [52]: 13.2 µM (inactive)
- GI50 [53]: 5 µM (inactive)
- GI50 [54]: 13.6 µM (inactive)

Source: ChEMBL document CHEMBL1201862, “PubChem BioAssay data set” (2004)
